Reference: patent US7776847B2, “Benzisothiazoles useful for treating or preventing HCV infection” (priority 2005, dated 2010)
Where two headings read alike, the source gives them in different places.

Test system: HCV replicon
Test: HCV replicon luciferase reporter assay
Assay type: cell-based
Set-up: scale not given here
Settings: Table 5
In short: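 Replicon-bearing dividing cells seeded at 5,000–7,500 cells/well, grown 24 h at 37° C/5% CO2, then exposed to test compound at various concentrations for a further 24–48 h. Replication/translation read by luciferase reporter; IC50 taken as compound amount giving 50% reduction in luciferase activity.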

[1] = Hepatitis C virus, read-out: IC50

O=C(NCCNc1nsc2ccccc12)c1cc(F)ccc1F [Compound 350, N-(2-(benzo[d]isothiazol-3-ylamino)ethyl)-2,5-difluorobenzamide]
IC50 [1]: < 5 µM

O=C(NCCNc1nsc2ccccc12)c1ccccc1C(F)(F)F [Compound 351, N-(2-(benzo[d]isothiazol-3-ylamino)ethyl)-2-(trifluoromethyl)benzamide]
IC50 [1]: < 5 µM

O=C(NCCNc1nsc2ccccc12)c1cc(F)ccc1C(F)(F)F [Compound 352, N-(2-(benzo[d]isothiazol-3-ylamino)ethyl)-5-fluoro-2-(trifluoromethyl)benzamide]
IC50 [1]: > 5 µM

O=C(NCCNc1nsc2ccccc12)c1cc(F)cc(C(F)(F)F)c1 [Compound 353, N-(2-(benzo[d]isothiazol-3-ylamino)ethyl)-3-fluoro-5-(trifluoromethyl)benzamide]
IC50 [1]: < 5 µM

O=C(NCCNc1nsc2ccccc12)c1ccc(C(F)(F)F)cc1F [Compound 354, N-(2-(benzo[d]isothiazol-3-ylamino)ethyl)-2-fluoro-4-(trifluoromethyl)benzamide]
IC50 [1]: < 5 µM

O=C(NCCNc1nsc2ccccc12)c1ccc(C(F)(F)F)c(F)c1 [Compound 355, N-(2-(benzo[d]isothiazol-3-ylamino)ethyl)-3-fluoro-4-(trifluoromethyl)benzamide]
IC50 [1]: < 5 µM

O=C(NCCNc1nsc2ccccc12)c1ccc(C(F)(F)F)cc1C(F)(F)F [Compound 356, N-(2-(benzo[d]isothiazol-3-ylamino)ethyl)-2,4-bis(trifluoromethyl)benzamide]
IC50 [1]: < 5 µM

O=C(NCCNc1nsc2ccccc12)c1cc(C(F)(F)F)ccc1C(F)(F)F [Compound 357, N-(2-(benzo[d]isothiazol-3-ylamino)ethyl)-2,5-bis(trifluoromethyl)benzamide]
IC50 [1]: < 5 µM

O=C(NCCNc1nsc2ccccc12)c1c(F)cccc1C(F)(F)F [Compound 358, N-(2-(benzo[d]isothiazol-3-ylamino)ethyl)-2-fluoro-6-(trifluoromethyl)benzamide]
IC50 [1]: > 5 µM

O=C(NCCNc1nsc2ccccc12)c1ccc(F)c(F)c1 [Compound 359, N-(2-(benzo[d]isothiazol-3-ylamino)ethyl)-3,4-difluorobenzamide]
IC50 (the head prints only IC50, b387 says Tables 5 and 6 hold Replicon reporter and Western blot results): A, B

COc1ccc(-c2ccc(C(=O)NCCNc3nsc4ccccc34)cc2)cc1 [Compound 360, N-(2-(benzo[d]isothiazol-3-ylamino)ethyl)-4′-methoxybiphenyl-4-carboxamide]
IC50 [1]: < 5 µM

COc1ccc(-c2ccc(C(=O)NCCNc3nsc4ccccc34)cc2)cc1OC [Compound 361, N-(2-(benzo[d]isothiazol-3-ylamino)ethyl)-3′,4′-dimethoxybiphenyl-4-carboxamide]
IC50 [1]: < 5 µM

COc1ccc(Cl)cc1-c1ccc(C(=O)NCCNc2nsc3ccccc23)cc1 [Compound 362, N-(2-(benzo[d]isothiazol-3-ylamino)ethyl)-5′-chloro-2′-methoxybiphenyl-4-carboxamide]
IC50 [1]: < 5 µM

Cc1ccc(OC(C)C)c(-c2ccc(C(=O)NCCNc3nsc4ccccc34)cc2)c1 [Compound 363, N-(2-(benzo[d]isothiazol-3-ylamino)ethyl)-2′-isopropoxy-5′-methylbiphenyl-4-carboxamide]
IC50 [1]: < 5 µM

COc1cccc(-c2ccc(C(=O)NCCNc3nsc4ccccc34)cc2)c1OC [Compound 364, N-(2-(benzo[d]isothiazol-3-ylamino)ethyl)-2′,3′-dimethoxybiphenyl-4-carboxamide]
IC50 [1]: < 5 µM

COc1ccc(C)cc1-c1ccc(C(=O)NCCNc2nsc3ccccc23)cc1 [Compound 365, N-(2-(benzo[d]isothiazol-3-ylamino)ethyl)-2′-methoxy-5′-methylbiphenyl-4-carboxamide]
IC50 [1]: < 5 µM

COc1ccc(-c2ccc(C(=O)NCCNc3nsc4ccccc34)cc2)c(C)c1 [Compound 366, N-(2-(benzo[d]isothiazol-3-ylamino)ethyl)-4′-methoxy-2′-methylbiphenyl-4-carboxamide]
IC50 [1]: < 5 µM

CCCOc1ccc(F)cc1-c1ccc(C(=O)NCCNc2nsc3ccccc23)cc1 [Compound 367, N-(2-(benzo[d]isothiazol-3-ylamino)ethyl)-5′-fluoro-2′-propoxybiphenyl-4-carboxamide]
IC50 [1]: < 5 µM

COc1cc(F)ccc1-c1cccc(C(=O)NCCCNc2nsc3ccccc23)c1 [Compound 368, N-(3-(benzo[d]isothiazol-3-ylamino)propyl)-4′-fluoro-6′-methoxybiphenyl-3-carboxamide]
IC50 [1]: < 5 µM

COc1cccc(-c2cccc(C(=O)NCCCNc3nsc4ccccc34)c2)c1OC [Compound 369, N-(3-(benzo[d]isothiazol-3-ylamino)propyl)-5′,6′-dimethoxybiphenyl-3-carboxamide]
IC50 [1]: < 5 µM

COc1ccc(-c2cccc(C(=O)NCCNc3nsc4ccccc34)c2)cc1OC [Compound 370, N-(2-(benzo[d]isothiazol-3-ylamino)ethyl)-3′,4′-dimethoxybiphenyl-3-carboxamide]
IC50 [1]: < 5 µM

COc1ccc(-c2cccc(C(=O)NCCNc3nsc4ccccc34)c2)cc1 [Compound 371, N-(2-(benzo[d]isothiazol-3-ylamino)ethyl)-4′-methoxybiphenyl-3-carboxamide]
IC50 [1]: < 5 µM

Cc1ccc(-c2cccc(C(=O)NCCNc3nsc4ccccc34)c2)cc1C [Compound 372, N-(2-(benzo[d]isothiazol-3-ylamino)ethyl)-3′,4′-dimethylbiphenyl-3-carboxamide]
IC50 [1]: < 5 µM

O=C(NCCNc1nsc2ccccc12)c1cccc(-c2ccc3ccccc3c2)c1 [Compound 373, N-(2-(benzo[d]isothiazol-3-ylamino)ethyl)-3-(naphthalen-2-yl)benzamide]
IC50 [1]: < 5 µM

O=C(NCCNc1nsc2ccccc12)c1cccc(-c2cccc3cccnc23)c1 [Compound 374, N-(2-(benzo[d]isothiazol-3-ylamino)ethyl)-3-(quinolin-8-yl)benzamide]
IC50 [1]: < 5 µM

O=C(NCCNc1nsc2ccccc12)c1cccc(-c2cnc3ccccc3c2)c1 [Compound 375, N-(2-(benzo[d]isothiazol-3-ylamino)ethyl)-3-(quinolin-3-yl)benzamide]
IC50 [1]: < 5 µM

CC(C)Oc1ccccc1-c1cccc(C(=O)NCCCNc2nsc3ccccc23)c1 [Compound 376, N-(3-(benzo[d]isothiazol-3-ylamino)propyl)-6′-isopropoxybiphenyl-3-carboxamide]
IC50 [1]: < 5 µM

CC(C)Oc1ccccc1-c1ccc(C(=O)NCCNc2nsc3ccccc23)cc1 [Compound 377, N-(2-(benzo[d]isothiazol-3-ylamino)ethyl)-2′-isopropoxybiphenyl-4-carboxamide]
IC50 [1]: < 5 µM

COc1ccc(-c2cccc(C(=O)NCCCNc3nsc4ccccc34)c2)cc1 [Compound 378, N-(3-(benzo[d]isothiazol-3-ylamino)propyl)-4′-methoxybiphenyl-3-carboxamide]
IC50 [1]: < 5 µM

CCCCc1ccc(NC(=O)NCCCNc2nsc3ccccc23)cc1 [Compound 379, 1-(3-(benzo[d]isothiazol-3-ylamino)propyl)-3-(4-butylphenyl)urea]
IC50 [1]: < 5 µM

O=C(NCCCNc1nsc2ccccc12)c1cccc(-c2ccc(Cl)nc2)c1 [Compound 380, N-(3-(benzo[d]isothiazol-3-ylamino)propyl)-3-(6-chloropyridin-3-yl)benzamide]
IC50 [1]: < 5 µM

CCOc1ccc(C)c(-c2cccc(C(=O)NCCCNc3nsc4ccccc34)c2)c1 [Compound 381, N-(3-(benzo[d]isothiazol-3-ylamino)propyl)-3′-ethoxy-6′-methylbiphenyl-3-carboxamide]
IC50 [1]: < 5 µM

COc1ccc(OC)c(-c2cccc(C(=O)NCCCNc3nsc4ccccc34)c2)c1 [Compound 382, N-(3-(benzo[d]isothiazol-3-ylamino)propyl)-3′,6′-dimethoxybiphenyl-3-carboxamide]
IC50 [1]: < 5 µM

CCCOc1cc(F)ccc1-c1cccc(C(=O)NCCCNc2nsc3ccccc23)c1 [Compound 383, N-(3-(benzo[d]isothiazol-3-ylamino)propyl)-4′-fluoro-6′-propoxybiphenyl-3-carboxaimde]
IC50 [1]: < 5 µM

COc1ccccc1-c1cccc(C(=O)NCCCNc2nsc3ccccc23)c1 [Compound 384, N-(3-(benzo[d]isothiazol-3-ylamino)propyl)-6′-methoxybiphenyl-3-carboxamide]
IC50 [1]: < 5 µM

O=C(NCCNc1nsc2ccccc12)c1ccc(-c2ccccc2O)cc1 [Compound 385, N-(2-(benzo[d]isothiazol-3-ylamino)ethyl)-2′-hydroxybiphenyl-4-carboxamide]
IC50 [1]: < 5 µM

O=C(NCCCNc1nsc2ccccc12)c1cccc(I)c1 [Compound 386, N-(3-(benzo[d]isothiazol-3-ylamino)propyl)-3-iodobenzamide]
IC50 [1]: < 5 µM

O=C(NCCCNc1nsc2ccccc12)Nc1ccc(I)cc1 [Compound 387, 1-(3-(benzo[d]isothiazol-3-ylamino)propyl)-3-(4-iodophenyl)urea]
IC50 [1]: < 5 µM

COc1ccc(-c2cccc(C(=O)NCCCNc3nsc4ccccc34)c2)cn1 [Compound 388, N-(3-(benzo[d]isothiazol-3-ylamino)propyl)-3-(6-methoxypyridin-3-yl)benzamide]
IC50 [1]: < 5 µM

CC(C)(C)OC(=O)N1CC=C(c2cccc(C(=O)NCCCNc3nsc4ccccc34)c2)CC1 [Compound 390, tert-butyl 4-(3-(3-(benzo[d]isothiazol-3-ylamino)propylcarbamoyl)phenyl)-5,6-dihydropyridine-1(2H)-carboxylate]
IC50 [1]: < 5 µM

CCOc1cc(OCC)cc(C(=O)NCCCNc2nsc3ccccc23)c1 [Compound 391, N-(3-(benzo[d]isothiazol-3-ylamino)propyl)-3,5-diethoxybenzamide]
IC50 [1]: < 5 µM

Cc1ccc(OC(C)C)c(-c2ccc(NC(=O)NCCCNc3nsc4ccccc34)cc2)c1 [Compound 392, 1-(3-(benzo[d]isothiazol-3-ylamino)propyl)-3-(2′-isopropoxy-5′-methylbiphenyl-4-yl)urea]
IC50 [1]: < 5 µM
